Assay results: PubChem BioAssay AID200 (DTP/NCI, 2004)
“And” between values parts separate entries of the source, which are not always exact repeats. Equal entries are not always repeated. Inconclusive results and toxic doses are left out. The calls were made as follows: active = survival T/C of 150% or more; inactive = T/C below 125% in these data.

System: B6C3F1 mice, B16 melanoma ip, median survival T/C
Test: NCI In Vivo Anticancer Drug Screen. Data for tumor model B16 Melanoma (intraperitoneal) in B6C3F1 mice
Conditions: endpoint: median survival time, schedule: Q01DX009 (ip), higher = longer survival
Outline: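 Transplantable tumor in mice; treated vs vehicle control groups; survival or tumor size measured; value = T/C ratio.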

[1] = dose: 12.5 mg/kg/injection, vehicle: saline
[2] = dose: 25.0 mg/kg/injection, vehicle: saline
[3] = dose: 50.0 mg/kg/injection, vehicle: saline
[4] = dose: 100.0 mg/kg/injection, vehicle: saline
[5] = dose: 200.0 mg/kg/injection, vehicle: saline
[6] = dose: 400.0 mg/kg/injection, vehicle: saline
[7] = dose: 50.0 mg/kg/injection, vehicle: Klucel (hydroxypropylcellulose) (HPC)
[8] = dose: 100.0 mg/kg/injection, vehicle: Klucel (hydroxypropylcellulose) (HPC)

Measured: T/C

COC1=CCC23C(=O)C=CC(=O)C2(C1)C(=O)c1ccccc1C3=O (centres undefined)
inactive: dose: 1.56 mg/kg/injection, vehicle: saline with Tween-80 99 % of control | dose: 3.12 mg/kg/injection, vehicle: saline with Tween-80 96 % of control | dose: 6.25 mg/kg/injection, vehicle: saline with Tween-80 93 % of control | dose: 12.5 mg/kg/injection, vehicle: saline with Tween-80 94 % of control

CCCC(=O)Nc1ncnc2c1ncn2C1OC2COP(=O)(O)OC2C1OC(=O)CCC (centres undefined)
inactive: [1] 102 % of control (2×) and 103 % of control | [2] 95 % of control and 100 % of control and 104 % of control | [3] 93 % of control and 102 % of control (2×) | [4] 94 % of control and 101 % of control and 102 % of control | [5] 112 % of control and 88 % of control and 100 % of control | [6] 88 % of control and 94 % of control and 103 % of control

CCCCC(C)(CCN)CCCC
inactive: [2] 105 % of control | [3] 122 % of control | [4] 101 % of control

CN(C)/N=N/c1[nH]cnc1C(N)=O.[Cl][Cu][Cl]
inactive: dose: 0.5 mg/kg/injection, vehicle: water 106 % of control | dose: 1.0 mg/kg/injection, vehicle: water 106 % of control | dose: 2.0 mg/kg/injection, vehicle: water 115 % of control | dose: 4.0 mg/kg/injection, vehicle: water 109 % of control | dose: 8.0 mg/kg/injection, vehicle: water 109 % of control

ClCc1ccc2ccccc2n1
inactive: dose: 25.0 mg/kg/injection, vehicle: saline with Tween-80 107 % of control | dose: 50.0 mg/kg/injection, vehicle: saline with Tween-80 102 % of control

OCC12COCN1COC2
inactive: [1] 98 % of control | [2] 113 % of control | [3] 113 % of control and 101 % of control | [4] 110 % of control and 100 % of control | [5] 108 % of control and 110 % of control | [6] 121 % of control and 105 % of control

O=c1[nH]cnc2c1nnn2C1OC(CO)C(O)C1O (centres undefined)
inactive: [2] 96 % of control and 101 % of control | [3] 116 % of control and 92 % of control | [4] 104 % of control | [5] 100 % of control

CCN(CC)c1ccc2cc3ccc(=[N+](CC)CC)cc-3oc2c1
inactive: dose: 2.5 mg/kg/injection, vehicle: Klucel (hydroxypropylcellulose) (HPC) 104 % of control | dose: 5.0 mg/kg/injection, vehicle: Klucel (hydroxypropylcellulose) (HPC) 96 % of control | dose: 10.0 mg/kg/injection, vehicle: Klucel (hydroxypropylcellulose) (HPC) 88 % of control

C=C(OC1C(C)=C2C(C1OC(=O)CCCCCCC)C(C)(OC(C)=O)CC(OC(=O)CCC)C1(O)C2OC(=O)C1(C)O)/C(C)=C/C (centres undefined)
inactive: dose: 0.09 mg/kg/injection, vehicle: Klucel (hydroxypropylcellulose) (HPC) 99 % of control | dose: 0.18 mg/kg/injection, vehicle: Klucel (hydroxypropylcellulose) (HPC) 114 % of control | dose: 0.37 mg/kg/injection, vehicle: Klucel (hydroxypropylcellulose) (HPC) 102 % of control | dose: 0.75 mg/kg/injection, vehicle: Klucel (hydroxypropylcellulose) (HPC) 114 % of control

COC1C(CO)OC(n2cnc3c(=S)nc(N)[nH]c32)C1O (centres undefined)
inactive: [7] 116 % of control | [8] 114 % of control

O=S(CCCl)CCCl
inactive: dose: 6.25 mg/kg/injection, vehicle: Klucel (hydroxypropylcellulose) (HPC) 96 % of control and 107 % of control | dose: 12.5 mg/kg/injection, vehicle: Klucel (hydroxypropylcellulose) (HPC) 98 % of control and 101 % of control | dose: 25.0 mg/kg/injection, vehicle: Klucel (hydroxypropylcellulose) (HPC) 98 % of control and 107 % of control | [7] 89 % of control and 96 % of control

NCCc1ccc(O)cc1
inactive: [3] 96 % of control | [4] 96 % of control | [5] 96 % of control | [6] 104 % of control

CC12C(=O)C=CCC1=CCC1C2CCC2(O)C(=O)OC3(C)C4CC5(C)C(COC16OC23C5C6=O)C(=O)O4 (centres undefined)
inactive: [8] 93 % of control | dose: 200.0 mg/kg/injection, vehicle: Klucel (hydroxypropylcellulose) (HPC) 98 % of control
